Where “and” joins values, the source holds several entries; their conditions need not be identical. Equal values may be shown once. Read-outs that look alike come from different tables or passages of the source.
What was measured:
Assay in all cases: greenhouse post-emergence herbicidal test
[1] = test system: ABUTH; format: in vivo, Abutilon theophrast; parameters: key to herbicidal activity against ABUTH found: rating on a scale from 0 to 100; conditions: post emergence; for pest or weed control at 31.25 g/ha / pest or weed control at 62.5 g/ha: Abutilon theophrasti, post-emergence, 480 h, read-out: herbicidal activity against ABUTH found
Procedure, shortened: (§1)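 A 0 to 100 injury score, read 20 days after post-emergence application, reflects above-ground destruction or absent emergence at 100. Actives, formulated as a 10% by weight emulsion concentrate, were applied in water to plants 1–15 cm tall held at 10-25° C or 20-35° C.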

[2] = test system: CONAR; format: in vivo, Convolvulus arvensis; parameters: key: rating on a scale from 0 to 100
Procedure, shortened: as §1

[3] = test system: GERPU; format: in vivo, Geranium pusillum; conditions: application rate a.i.: I.1 31.25 g/ha
Experimental: (§2) The culture containers used were plastic pots containing medium loamy sand with approximately 4.6% of humus and 69.9% sand as substrate. The seeds of the test plants were sown separately for each species.
(§3) For the post-emergence treatment, the test plants were grown to a plant height of from 1 to 15 cm, depending on the plant habit, and only then treated with the active compounds which had been suspended or emulsified in water. To this end, the test plants were either sown directly, and grown in the same containers, or they were first grown separately as seedlings and transplanted into the test containers a few days prior to treatment.
(§4) Depending on the species, the plants were kept at 10-25° C. and 20-35° C., respectively.
(§5) The test period extended over 1 to 3 weeks. During this time, the plants were tended and their response to the individual treatments was evaluated 20 days after treatment except mentioned otherwise.
Evaluation was carried out using a scale from 0 to 100. 100 means no emergence of the plants, or complete destruction of at least the above-ground parts, and 0 means no damage or normal course of growth.
The respective stated components A and B, and, if appropriate, C, were formulated as a 10% by weight strength emulsion concentrate and, with addition of the amount of solvent system, introduced into the spray liquor used for applying the active compound. In the examples, the solvent used was water.
In the examples below, using the method of S. R. Colby (1967) “Calculating synergistic and antagonistic responses of herbicide combinations”, Weeds 15, p. 22 ff., the value E, which is expected if the activity of the individual active compounds is only additive, was calculated. E=X+Y−(X·Y/100)

[4] = test system: SETVI; format: in vivo, Setaria viridis; conditions: a.i. g/ha: I.1 20.8, B.192 62.5, 20 days after treatment
Experimental: as §2, §3, §4, §5
Evaluation was carried out using a scale from 0 to 100. […]
In the examples below, using the method of S. R. Colby (1967) “Calculating synergistic and antagonistic responses of herbicide combinations”, Weeds 15, p. 22 ff., the value E, which is expected if the activity of the individual active compounds is only additive, was calculated. […]

[5] = test system: VIOAR; format: in vivo, Viola arvensis; parameters: key to herbicidal activity against VIOAR found / herbicidal activity against VIOLA found: rating on a scale from 0 to 100; conditions: post emergence; for pest or weed control at 62.5 g/ha / pest or weed control at 125 g/ha: Viola arvensis, post-emergence, read-out: herbicidal activity against VIOAR found
Procedure, shortened: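 Post-emergence greenhouse test: plants in loamy sand, sprayed at 1–15 cm height with aqueous spray liquor from 10% emulsion concentrates, kept at 10-25 °C or 20-35 °C by species. Damage scored 0–100 (100 = complete destruction), usually 20 days after treatment. Expected additive effect E from Colby: E=X+Y−(X·Y/100).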

[6] = 6 days after treatment, g/ha a.i.: I.1 31.25, B.96 35, mixture 31.25+35
[7] = 6 days after treatment, g/ha a.i.: I.1 31.25, B.96 70, mixture 31.25+70
[8] = 6 days after treatment, g/ha a.i.: I.1 31.25, naptalam 100, mixture 31.25+100
[9] = a.i. g/ha: I.1 7.8, B.67 125, 20 days after treatment
[10] = a.i. g/ha: I.1 15.6, B.67 125, 20 days after treatment
[11] = a.i. g/ha: I.1 31.25, B.67 125, 20 days after treatment
[12] = a.i. g/ha: I.1 62.5, B.67 125, 20 days after treatment
[13] = a.i. g/ha: I.1 62.5, B.69 25, 20 days after treatment
[14] = application rate a.i.: I.1 31.25 g/ha, B.139 (pyroxasulfone) 25 g/ha, alone or as mixture (composition 1.139)
[15] = g/ha a.i.: I.1 62.5, B.52 2.5, mixture 62.5+2.5
[16] = 6 days after treatment, g/ha a.i.: I.1 31.25, naptalam 200, mixture 31.25+200
[17] = 6 days after treatment, g/ha a.i.: I.1 62.5, B.96 140, mixture 62.5+140
[18] = application rate a.i.: I.1 62.5 g/ha, B.30 (imazamox) 3.75 g/ha, alone or as mixture (composition 1.030)
[19] = application rate a.i.: I.1 62.5 g/ha, B.84 (paraquat-dichloride) 17.5 g/ha, alone or as mixture (composition 1.84)

Compound: O=C(O)c1cc(C2CC2)nc2onc(C3CC3)c12 [I.1]
- pest or weed control at 31.25 g/ha ([1]; I.1 alone 31.25 g/ha a.i.): 0%
- pest or weed control at 62.5 g/ha ([1]; I.1 alone 62.5 g/ha a.i.): 65%
- pest or weed control at 62.5 g/ha ([1]; 62.5 g/ha a.i.): 25%
- pest or weed control at 31.25 g/ha ([1]; I.1 31.25 g/ha a.i.): 20%
- pest or weed control at 31.25 g/ha ([1]; single active, 31.25 g/ha a.i.): 0%
- herbicidal activity against ABUTH found [1, 6]: 35
- herbicidal activity against ABUTH found [1, 7]: 35
- herbicidal activity against ABUTH found [1, 8]: 35
- herbicidal activity against ABUTH found ([1]; I.1 31.25 g/ha, B.88 1 g/ha a.i.): 60
- herbicidal activity against ABUTH found ([1]; I.1 31.25 g/ha, B.89 25 g/ha a.i.): 60
- herbicidal activity against ABUTH found ([1]; I.1 62.5 g/ha, B.167 62.5 g/ha a.i.): 0
- herbicidal activity against ABUTH found ([1]; I.1 62.5 g/ha, B.167 125 g/ha a.i.): 0
- herbicidal activity against ABUTH found [1, 9]: 0%
- herbicidal activity against ABUTH found [1, 10]: 30%
- herbicidal activity against ABUTH found [1, 11]: 60%
- herbicidal activity against ABUTH found ([1]; a.i. g/ha: I.1 31.25, B.67 125, 20 days after treatment, sub-table r36-r43): 60%
- herbicidal activity against ABUTH found [1, 12]: 90%
- herbicidal activity against ABUTH found [1, 13]: 50%
- herbicidal activity against ABUTH found ([1]; application rate a.i.: I.1 20.8 g/ha, B.107 (topramezone) 6 g/ha, alone or as mixture (composition 1.107)): 0
- herbicidal activity against ABUTH found [1, 14]: 10
- herbicidal activity against ABUTH found ([1]; application rate a.i.: I.1 62.5 g/ha, B.107 (topramezone) 6 g/ha, alone or as mixture (composition 1.107)): 66
- herbicidal activity against ABUTH found ([1]; applied alone at 31.25 g/ha a.i.): 30 and 25
- herbicidal activity against ABUTH found ([1]; applied alone at 62.5 g/ha a.i.): 50 and 85
- herbicidal activity against ABUTH found ([1]; applied alone at 125 g/ha a.i.): 60
- herbicidal activity against ABUTH found ([1]; g/ha a.i.: I.1 31.25, B.20 2, mixture 31.25+2): 15
- herbicidal activity against ABUTH found ([1]; g/ha a.i.: I.1 31.25, B.20 4, mixture 31.25+4): 15
- herbicidal activity against ABUTH found ([1]; g/ha a.i.: I.1 31.25, B.24 2, mixture 31.25+2): 15
- herbicidal activity against ABUTH found ([1]; g/ha a.i.: I.1 31.25, B.52 2.5, mixture 31.25+2.5): 15
- herbicidal activity against ABUTH found ([1]; g/ha a.i.: I.1 31.25, B.52 5, mixture 31.25+5): 15
- herbicidal activity against ABUTH found [1, 15]: 60
- herbicidal activity against CONAR found ([2]; 31.25 g/ha a.i.): 40
- herbicidal activity against CONAR found ([2]; 62.5 g/ha a.i.): 60
- herbicidal activity against CONAR found ([2]; 125 g/ha a.i.): 70
- herbicidal activity against CONAR found ([2]; 6 days after treatment, g/ha a.i.: I.1 31.25, naptalam 50, mixture 31.25+50): 5
- herbicidal activity against CONAR found [2, 8]: 5
- herbicidal activity against CONAR found [2, 16]: 5
- herbicidal activity against CONAR found [2, 17]: 65
- herbicidal activity against CONAR found ([2]; 6 days after treatment, g/ha a.i.: I.1 125, naptalam 100, mixture 125+100): 70
- herbicidal activity against CONAR found [2, 9]: 0%
- herbicidal activity against CONAR found [2, 10]: 0%
- herbicidal activity against CONAR found ([2]; a.i. g/ha: I.1 20.8, B.67 62.5, 20 days after treatment): 0%
- herbicidal activity against CONAR found [2, 11]: 0%
- herbicidal activity against CONAR found ([2]; a.i. g/ha: I.1 31.25, B.69 25, 20 days after treatment): 70%
- herbicidal activity against CONAR found ([2]; a.i. g/ha: I.1 62.5, B.67 62.5, 20 days after treatment): 25%
- herbicidal activity against CONAR found [2, 12]: 0%
- herbicidal activity against CONAR found [2, 13]: 65%
- herbicidal activity against CONAR found ([2]; a.i. g/ha: I.1 62.5, B.76 225, 20 days after treatment): 65%
- herbicidal activity against CONAR found ([2]; a.i. g/ha: I.1 62.5, B.77 75, 20 days after treatment): 25%
- herbicidal activity against CONAR found ([2]; a.i. g/ha: I.1 62.5, B.80 250, 20 days after treatment): 25%
- herbicidal activity against CONAR found ([2]; application rate a.i.: I.1 31.25 g/ha, B.139 (pyroxasulfone) 12.5 g/ha, alone or as mixture (composition 1.139)): 30
- herbicidal activity against CONAR found [2, 14]: 30
- herbicidal activity against CONAR found [2, 18]: 25
- herbicidal activity against CONAR found [2, 19]: 45
- herbicidal activity against CONAR found ([2]; application rate a.i.: I.1 125 g/ha, B.113 (glyphosate) 33.75 g/ha, alone or as mixture (composition 1.113)): 80
- herbicidal activity against GERPU, found ([3]; B.139 (pyroxasulfone) 12.5 g/ha, alone or as mixture (composition 1.139)): 80
- herbicidal activity against GERPU, found ([3]; B.139 (pyroxasulfone) 25 g/ha, alone or as mixture (composition 1.139)): 80
- herbicidal activity against GERPU, found ([3]; B.87 (carfentrazone-ethyl) 1.75 g/ha, alone or as mixture (composition 1.87)): 80
- herbicidal activity against SETVI found [4]: 25%
- pest or weed control at 62.5 g/ha ([5]; I.1 alone 62.5 g/ha a.i.): 30%
- pest or weed control at 62.5 g/ha ([5]; 62.5 g/ha a.i.): 0%
- pest or weed control at 125 g/ha ([5]; 125 g/ha a.i.): 90%
- pest or weed control at 62.5 g/ha ([5]; single active, 62.5 g/ha a.i.): 20%
- pest or weed control at 125 g/ha ([5]; single active, 125 g/ha a.i.): 30%
- herbicidal activity against VIOAR found [5, 6]: 0
- herbicidal activity against VIOAR found [5, 7]: 0
- herbicidal activity against VIOAR found ([5]; 6 days after treatment, g/ha a.i.: I.1 31.25, B.96 140, mixture 31.25+140): 0
- herbicidal activity against VIOAR found [5, 16]: 0
- herbicidal activity against VIOAR found ([5]; 6 days after treatment, g/ha a.i.: I.1 62.5, B.96 35, mixture 62.5+35): 0
- herbicidal activity against VIOAR found ([5]; 6 days after treatment, g/ha a.i.: I.1 62.5, B.96 70, mixture 62.5+70): 0
- herbicidal activity against VIOAR found [5, 17]: 0
- herbicidal activity against VIOAR found ([5]; 6 days after treatment, g/ha a.i.: I.1 62.5, naptalam 100, mixture 62.5+100): 0
- herbicidal activity against VIOAR found ([5]; 6 days after treatment, g/ha a.i.: I.1 62.5, naptalam 200, mixture 62.5+200): 0
- herbicidal activity against VIOAR found ([5]; I.1 62.5 g/ha, B.89 12.5 g/ha a.i.): 25
- herbicidal activity against VIOAR found ([5]; application rate a.i.: I.1 31.25 g/ha, B.84 (paraquat-dichloride) 17.5 g/ha, alone or as mixture (composition 1.84)): 40
- herbicidal activity against VIOAR found ([5]; application rate a.i.: I.1 62.5 g/ha, B.100 (isoxaflutole) 12.5 g/ha, alone or as mixture (composition 1.100)): 30
- herbicidal activity against VIOAR found [5, 18]: 0
- herbicidal activity against VIOAR found [5, 19]: 40
- herbicidal activity against VIOAR found ([5]; applied alone at 125 g/ha a.i.): 60 and 80
- herbicidal activity against VIOAR found [5, 15]: 0
- herbicidal activity against VIOAR found ([5]; g/ha a.i.: I.1 62.5, B.63 0.5, mixture 62.5+0.5): 0
- herbicidal activity against VIOAR found ([5]; g/ha a.i.: I.1 125, B.52 2.5, mixture 125+2.5): 0
- herbicidal activity against VIOAR found ([5]; g/ha a.i.: I.1 125, B.52 5, mixture 125+5): 0
- herbicidal activity against VIOAR found ([5]; g/ha a.i.: I.1 125, B.63 1, mixture 125+1): 0
- herbicidal activity against VIOLA found ([5]; single active, 15.625 g/ha a.i.): 0
- herbicidal activity against VIOLA found ([5]; single active, 62.5 g/ha a.i.): 20
- herbicidal activity against VIOLA found ([5]; single active, 125 g/ha a.i.): 30

Source: patent US10881110B2, “Herbicidal compositions comprising isoxazolo[5,4-b]pyridines” (BASF SE, priority 2014, dated 2021)
